From publication PMC11864979, “First-in-class ultralong-target-residence-time p38α inhibitors as a mitosis-targeted therapy for colorectal cancer” (Nature Cancer, 2025)
Like-named read-outs stand apart in the source and are kept apart here.

Assays:
Experiment in all cases: selectivity profiling in a panel of 340 wild-type kinases (Reaction Biology Europe)
Assay type in all cases: binding
340 wild-type kinases [1] = molecular target: T1, 340 wild-type kinases (Homo sapiens, UniProt O00311)
T1 construct: purchased Reaction Biology Europe
T1 sequence (O00311 whole entry): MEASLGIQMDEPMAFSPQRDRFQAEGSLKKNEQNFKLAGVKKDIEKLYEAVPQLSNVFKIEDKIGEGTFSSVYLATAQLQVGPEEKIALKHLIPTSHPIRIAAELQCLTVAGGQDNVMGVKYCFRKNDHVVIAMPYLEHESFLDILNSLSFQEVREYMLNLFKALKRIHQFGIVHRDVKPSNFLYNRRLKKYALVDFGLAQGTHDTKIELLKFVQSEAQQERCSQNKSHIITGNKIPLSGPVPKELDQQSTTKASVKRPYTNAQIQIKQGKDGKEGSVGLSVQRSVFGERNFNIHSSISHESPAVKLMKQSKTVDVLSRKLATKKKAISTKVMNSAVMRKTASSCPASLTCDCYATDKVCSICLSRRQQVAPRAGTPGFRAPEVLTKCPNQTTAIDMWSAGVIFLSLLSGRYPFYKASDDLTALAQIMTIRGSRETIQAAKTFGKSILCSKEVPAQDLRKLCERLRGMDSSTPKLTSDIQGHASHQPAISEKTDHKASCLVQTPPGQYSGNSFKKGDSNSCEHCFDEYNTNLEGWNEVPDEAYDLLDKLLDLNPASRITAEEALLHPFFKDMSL

340 wild-type kinases [2] = molecular target: T2, 340 wild-type kinases (Homo sapiens, UniProt P04049, Y340D/Y341D); conditions: read-out: RAF1 YDYD residual activity
T2 construct: purchased Reaction Biology Europe
T2 sequence (P04049 whole entry Y340D/Y341D): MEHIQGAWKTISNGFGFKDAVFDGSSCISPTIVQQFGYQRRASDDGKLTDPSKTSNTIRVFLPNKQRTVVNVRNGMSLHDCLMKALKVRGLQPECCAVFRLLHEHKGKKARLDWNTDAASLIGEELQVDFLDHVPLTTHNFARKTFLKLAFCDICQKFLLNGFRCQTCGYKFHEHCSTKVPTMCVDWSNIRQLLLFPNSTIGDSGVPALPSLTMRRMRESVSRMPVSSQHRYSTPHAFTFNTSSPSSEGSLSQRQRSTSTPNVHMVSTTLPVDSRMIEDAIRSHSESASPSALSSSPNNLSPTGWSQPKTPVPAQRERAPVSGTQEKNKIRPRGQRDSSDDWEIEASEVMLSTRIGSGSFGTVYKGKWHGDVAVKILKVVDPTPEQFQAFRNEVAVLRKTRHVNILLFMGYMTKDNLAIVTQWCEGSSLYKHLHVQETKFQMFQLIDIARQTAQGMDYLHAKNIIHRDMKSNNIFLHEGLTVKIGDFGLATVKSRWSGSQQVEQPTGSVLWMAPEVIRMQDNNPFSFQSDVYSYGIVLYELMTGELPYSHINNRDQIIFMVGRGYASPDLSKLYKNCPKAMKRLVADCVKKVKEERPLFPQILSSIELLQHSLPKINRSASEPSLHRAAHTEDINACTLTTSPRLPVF

340 wild-type kinases [3] = molecular target: T3, 340 wild-type kinases (Homo sapiens, UniProt Q13976)
T3 construct: purchased Reaction Biology Europe
T3 sequence (Q13976 1-671): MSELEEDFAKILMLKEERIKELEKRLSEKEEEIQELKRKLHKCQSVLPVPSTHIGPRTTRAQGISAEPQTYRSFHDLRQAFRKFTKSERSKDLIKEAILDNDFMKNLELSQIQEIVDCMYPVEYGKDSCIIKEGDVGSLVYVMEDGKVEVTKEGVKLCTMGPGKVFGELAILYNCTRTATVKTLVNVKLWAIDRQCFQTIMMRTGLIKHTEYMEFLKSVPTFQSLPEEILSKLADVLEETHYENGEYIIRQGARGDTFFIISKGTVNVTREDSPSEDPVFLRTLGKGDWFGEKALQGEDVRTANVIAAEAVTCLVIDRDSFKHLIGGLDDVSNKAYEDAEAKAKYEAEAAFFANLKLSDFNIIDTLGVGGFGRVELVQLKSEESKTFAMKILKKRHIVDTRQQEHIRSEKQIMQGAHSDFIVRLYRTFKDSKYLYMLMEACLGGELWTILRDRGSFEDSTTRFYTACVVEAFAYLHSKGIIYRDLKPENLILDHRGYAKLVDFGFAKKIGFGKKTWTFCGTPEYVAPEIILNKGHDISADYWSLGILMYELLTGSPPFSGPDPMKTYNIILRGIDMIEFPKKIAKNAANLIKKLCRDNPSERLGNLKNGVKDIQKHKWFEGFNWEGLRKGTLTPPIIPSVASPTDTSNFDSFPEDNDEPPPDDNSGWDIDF

340 wild-type kinases [4] = molecular target: T4, 340 wild-type kinases (Homo sapiens, UniProt P29322)
T4 construct: purchased Reaction Biology Europe
T4 sequence (P29322 28-1005): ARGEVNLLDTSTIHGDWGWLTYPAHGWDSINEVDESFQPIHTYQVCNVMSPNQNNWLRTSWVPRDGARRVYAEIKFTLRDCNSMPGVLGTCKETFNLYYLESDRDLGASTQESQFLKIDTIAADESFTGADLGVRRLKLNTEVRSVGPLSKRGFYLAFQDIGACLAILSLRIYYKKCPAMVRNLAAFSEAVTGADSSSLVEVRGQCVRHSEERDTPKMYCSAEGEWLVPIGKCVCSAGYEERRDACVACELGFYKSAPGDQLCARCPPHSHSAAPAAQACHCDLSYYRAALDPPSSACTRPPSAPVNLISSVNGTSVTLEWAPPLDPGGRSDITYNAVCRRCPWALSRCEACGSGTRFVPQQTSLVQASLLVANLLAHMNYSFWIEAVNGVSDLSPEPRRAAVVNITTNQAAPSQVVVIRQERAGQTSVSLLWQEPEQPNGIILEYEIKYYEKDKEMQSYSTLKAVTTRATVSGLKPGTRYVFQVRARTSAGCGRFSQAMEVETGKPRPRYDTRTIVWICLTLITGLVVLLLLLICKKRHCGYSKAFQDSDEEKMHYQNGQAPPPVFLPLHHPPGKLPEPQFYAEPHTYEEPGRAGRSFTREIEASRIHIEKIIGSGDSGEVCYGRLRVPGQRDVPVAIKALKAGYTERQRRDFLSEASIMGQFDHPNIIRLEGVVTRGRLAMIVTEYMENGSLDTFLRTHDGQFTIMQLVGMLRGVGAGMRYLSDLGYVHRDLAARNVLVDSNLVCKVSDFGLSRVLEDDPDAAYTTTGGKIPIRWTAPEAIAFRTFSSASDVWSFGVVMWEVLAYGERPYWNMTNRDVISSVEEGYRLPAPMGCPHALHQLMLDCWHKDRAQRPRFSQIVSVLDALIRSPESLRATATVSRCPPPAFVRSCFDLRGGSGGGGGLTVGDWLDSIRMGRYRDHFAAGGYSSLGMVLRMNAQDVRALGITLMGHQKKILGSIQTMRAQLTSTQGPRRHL

340 wild-type kinases [5] = molecular target: T5, 340 wild-type kinases (Homo sapiens, UniProt O00141)
T5 construct: purchased Reaction Biology Europe
T5 sequence (O00141 1-431): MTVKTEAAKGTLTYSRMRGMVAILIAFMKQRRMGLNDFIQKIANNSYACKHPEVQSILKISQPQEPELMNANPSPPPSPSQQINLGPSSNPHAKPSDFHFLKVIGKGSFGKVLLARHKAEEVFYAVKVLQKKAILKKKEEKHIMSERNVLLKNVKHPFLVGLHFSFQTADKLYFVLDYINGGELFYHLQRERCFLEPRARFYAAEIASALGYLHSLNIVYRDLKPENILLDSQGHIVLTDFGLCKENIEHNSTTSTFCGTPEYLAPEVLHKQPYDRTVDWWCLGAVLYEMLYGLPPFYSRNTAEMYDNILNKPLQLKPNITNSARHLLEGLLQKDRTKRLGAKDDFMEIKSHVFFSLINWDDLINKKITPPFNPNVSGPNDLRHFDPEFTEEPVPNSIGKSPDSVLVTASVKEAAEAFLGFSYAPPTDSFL

340 wild-type kinases [6] = molecular target: T6, 340 wild-type kinases (Homo sapiens, UniProt P15056)
T6 construct: purchased Reaction Biology Europe
T6 sequence (P15056 whole entry): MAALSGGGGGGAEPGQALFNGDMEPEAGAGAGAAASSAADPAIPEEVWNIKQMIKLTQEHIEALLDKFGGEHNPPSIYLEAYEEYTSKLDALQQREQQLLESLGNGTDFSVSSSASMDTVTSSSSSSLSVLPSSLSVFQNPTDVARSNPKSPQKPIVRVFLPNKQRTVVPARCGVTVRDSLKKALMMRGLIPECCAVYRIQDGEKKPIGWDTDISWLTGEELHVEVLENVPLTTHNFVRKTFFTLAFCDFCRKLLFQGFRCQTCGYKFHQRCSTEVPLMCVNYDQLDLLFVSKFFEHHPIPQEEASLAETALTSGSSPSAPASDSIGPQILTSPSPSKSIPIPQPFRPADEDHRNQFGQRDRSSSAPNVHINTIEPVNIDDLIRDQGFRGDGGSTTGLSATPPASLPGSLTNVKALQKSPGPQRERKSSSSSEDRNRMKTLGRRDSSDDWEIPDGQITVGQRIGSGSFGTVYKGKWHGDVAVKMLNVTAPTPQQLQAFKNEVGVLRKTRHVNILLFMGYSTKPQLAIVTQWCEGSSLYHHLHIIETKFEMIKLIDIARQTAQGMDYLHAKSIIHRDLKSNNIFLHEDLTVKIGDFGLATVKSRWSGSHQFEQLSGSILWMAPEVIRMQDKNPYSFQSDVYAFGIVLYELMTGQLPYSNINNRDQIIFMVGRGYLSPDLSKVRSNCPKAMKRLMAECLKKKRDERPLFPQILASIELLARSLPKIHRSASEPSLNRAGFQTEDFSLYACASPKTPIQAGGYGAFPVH

340 wild-type kinases [7] = molecular target: T7, 340 wild-type kinases (Homo sapiens, UniProt P27448)
T7 construct: purchased Reaction Biology Europe
T7 sequence (P27448 whole entry): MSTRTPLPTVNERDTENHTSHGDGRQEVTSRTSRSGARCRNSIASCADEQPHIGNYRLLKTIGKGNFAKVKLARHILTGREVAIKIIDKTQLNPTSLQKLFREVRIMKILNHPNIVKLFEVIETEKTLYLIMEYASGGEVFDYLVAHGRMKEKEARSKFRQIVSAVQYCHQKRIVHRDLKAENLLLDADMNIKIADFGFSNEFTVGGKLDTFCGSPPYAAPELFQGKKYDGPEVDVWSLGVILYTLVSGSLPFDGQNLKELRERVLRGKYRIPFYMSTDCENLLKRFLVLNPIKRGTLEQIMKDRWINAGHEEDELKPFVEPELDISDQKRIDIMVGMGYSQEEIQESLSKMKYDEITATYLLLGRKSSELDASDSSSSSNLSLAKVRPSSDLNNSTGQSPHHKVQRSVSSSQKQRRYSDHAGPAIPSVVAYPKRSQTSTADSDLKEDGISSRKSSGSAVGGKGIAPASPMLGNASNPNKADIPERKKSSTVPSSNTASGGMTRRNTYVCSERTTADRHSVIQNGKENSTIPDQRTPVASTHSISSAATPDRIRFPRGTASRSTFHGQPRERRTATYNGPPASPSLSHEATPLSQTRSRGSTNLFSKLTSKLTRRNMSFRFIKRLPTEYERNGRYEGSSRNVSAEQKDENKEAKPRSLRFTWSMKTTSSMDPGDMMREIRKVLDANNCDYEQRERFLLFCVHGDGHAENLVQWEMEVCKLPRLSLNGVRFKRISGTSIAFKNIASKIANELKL

## CNC(=O)c1ccc2c(c1)C(=O)c1ccc(Nc3ccc(F)c(NC(=O)C4CC4)c3)cc1CC2 [Compound 2015]
340 wild-type kinases [1]; 0.2 µM 2015, read-out: CDC7/DBF4 residual activity
  remaining activity at 0.2 µM: 108%
340 wild-type kinases [1]; 1 µM 2015, read-out: CDC7/DBF4 residual activity
  remaining activity at 1 µM: 95.1%
340 wild-type kinases [1]; CDC7/DBF4, 0.2 µM, read-out: residual activity
  remaining activity at 0.2 µM: 108%
340 wild-type kinases [1]; CDC7/DBF4, 1 µM, read-out: residual activity
  remaining activity at 1 µM: 95.1%
340 wild-type kinases [2]; 0.2 µM 2015
  remaining activity at 0.2 µM: 80.3%
340 wild-type kinases [2]; 1 µM 2015
  remaining activity at 1 µM: 88.8%
340 wild-type kinases [3]; 0.2 µM 2015, read-out: PRKG1 residual activity
  remaining activity at 0.2 µM: 106%
340 wild-type kinases [3]; 1 µM 2015, read-out: PRKG1 residual activity
  remaining activity at 1 µM: 104%
340 wild-type kinases [3]; PRKG1, 0.2 µM, read-out: residual activity
  remaining activity at 0.2 µM: 106%
340 wild-type kinases [3]; PRKG1, 1 µM, read-out: residual activity
  remaining activity at 1 µM: 104%
340 wild-type kinases [4]; 0.2 µM 2015, read-out: EPHA8 residual activity
  remaining activity at 0.2 µM: 98.5%
340 wild-type kinases [4]; 1 µM 2015, read-out: EPHA8 residual activity
  remaining activity at 1 µM: 95.3%
340 wild-type kinases [4]; EPHA8, 0.2 µM, read-out: residual activity
  remaining activity at 0.2 µM: 98.5%
340 wild-type kinases [4]; EPHA8, 1 µM, read-out: residual activity
  remaining activity at 1 µM: 95.3%
340 wild-type kinases [5]; 0.2 µM 2015, read-out: SGK1 residual activity
  remaining activity at 0.2 µM: 95.9%
340 wild-type kinases [5]; 1 µM 2015, read-out: SGK1 residual activity
  remaining activity at 1 µM: 91.4%
340 wild-type kinases [5]; SGK1, 0.2 µM, read-out: residual activity
  remaining activity at 0.2 µM: 95.8%
340 wild-type kinases [5]; SGK1, 1 µM, read-out: residual activity
  remaining activity at 1 µM: 91.4%
340 wild-type kinases [6]; 0.2 µM 2015, read-out: BRAF residual activity
  remaining activity at 0.2 µM: 93.9%
340 wild-type kinases [6]; 1 µM 2015, read-out: BRAF residual activity
  remaining activity at 1 µM: 104%
340 wild-type kinases [6]; BRAF, 0.2 µM, read-out: residual activity
  remaining activity at 0.2 µM: 94%
340 wild-type kinases [6]; BRAF, 1 µM, read-out: residual activity
  remaining activity at 1 µM: 104%
340 wild-type kinases [7]; 0.2 µM 2015, read-out: MARK3 residual activity
  remaining activity at 0.2 µM: 117%
340 wild-type kinases [7]; 1 µM 2015, read-out: MARK3 residual activity
  remaining activity at 1 µM: 100%
340 wild-type kinases [7]; MARK3, 0.2 µM, read-out: residual activity
  remaining activity at 0.2 µM: 117%
340 wild-type kinases [7]; MARK3, 1 µM, read-out: residual activity
  remaining activity at 1 µM: 100%
